The results in this text go back to ChEMBL document CHEMBL1212888, “NMR spectroscopy and computational analysis of interaction between Serratia marcescens chitinase B and a dipeptide derived from natural-product cyclopentapeptide chitinase inhibitor argifin” (Bioorg Med Chem, 2010).

In the assay the target is T1, Chitinase B (Serratia marcescens, UniProt P11797).
T1 sequence (P11797 whole entry): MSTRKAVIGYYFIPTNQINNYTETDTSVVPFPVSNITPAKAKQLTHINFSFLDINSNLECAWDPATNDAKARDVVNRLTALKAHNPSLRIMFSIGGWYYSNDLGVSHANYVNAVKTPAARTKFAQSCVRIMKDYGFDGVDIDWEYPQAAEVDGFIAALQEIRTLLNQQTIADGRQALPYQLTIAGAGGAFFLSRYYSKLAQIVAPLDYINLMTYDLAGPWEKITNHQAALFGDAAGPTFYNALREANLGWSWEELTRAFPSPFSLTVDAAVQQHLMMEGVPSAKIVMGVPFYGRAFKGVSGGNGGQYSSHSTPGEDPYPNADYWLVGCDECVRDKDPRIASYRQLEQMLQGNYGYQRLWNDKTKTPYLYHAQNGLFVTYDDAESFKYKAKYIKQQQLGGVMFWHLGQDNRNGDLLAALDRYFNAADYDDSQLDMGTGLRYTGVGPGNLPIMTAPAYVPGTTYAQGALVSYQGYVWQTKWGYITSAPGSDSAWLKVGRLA
In words: Inhibition of Serratia marcescens chitinase B.

As usually defined, the Kd is the constant that tells how readily two partners part at equilibrium. A lower Kd goes with higher affinity. On to `CNC(=O)NC(=N)NCCC[C@@H]1NC(=O)[C@@H](C)NC(=O)C[C@@H](C(=O)O)NC(=O)C[C@@H](C(=O)O)NC(=O)[C@H](Cc2ccccc2)N(C)C1=O` [ARGIFIN], for which the Kd stood at 33 µM.
